Test results as given in patent US5994311A, “Cell adhesion peptides for modifying the adhesion capacity of eukaryotic cells between each other” (Beiersdorf AG, priority 1994, dated 1999).

Assays:
[1] = tested on: HDF cells; assay: Cell adherence test with HDF cells; format: cell-based, human; settings: for CELL ADHESION [%]: peptide/BSA conjugates bound to polystyrene, approx. 35 nmol peptide per well, 1 hour at 37° C., fibronectin positive control, BSA negative control; for adherence promoting effect for HDF cells (in words): BSA conjugates
Procedure: (§1) 50 μl each of the peptide/BSA conjugates or the peptides were placed, in different concentrations, in the wells of a 96-well flat-bottomed microtiter plate (DYNATECH). After drying for 2 hours at 37° C., unbound peptide/BSA conjugate or peptide is removed by washing with phosphate-buffered saline solution (PBS) several times. In order to prevent the non-specific adhesion of the cells to polystyrene, all the wells were subsequently saturated for 30 min. at 37° C. with heat-denatured BSA (2 mg/ml). Following that, it was once again washed with PBS.
As a positive control for the adhesion capacity, bovine fibronectin (Paesel & Lorey, 1 mg/ml) was used, and heat-denatured BSA (2 mg/ml) as a negative control; this is not capable of influencing intercellular adhesion.
(§2) The cell adherence test was performed with AKR-2B mouse fibroblasts (Shipley et al., Cancer Res. 44 (1984) 710-716) and human dermal fibroblasts (HDF, removed from the lower arm, 18th passage). AKR-2B cells were cultivated in McCoy's medium (10% calf serum), and HDF cells in Dulbecco's modified eagle medium (DMEM) in the presence of 10% foetal calf serum (FCS) and 1% streptomycin/penicillin. For the adherence test, the cells were washed twice with protein-free HYBRI-MAX™ (medium for culture of hybridoma cell types containing 1 mM Mn^2+ and 0.02% heat-denatured BSA) medium (SIGMA) and then taken up in Hybri-Max (1 mM Mn^2+, 0.02% heat-denatured BSA). In this way, it was largely ensured that neither protein components from the culture medium, nor serum components, such as fibronectin for example, could influence the adherence test. In each well of the microtiter plate previously filled with test substance (peptide concentration per well: approx. 35 nmol), 200 μl of the cell suspension taken up in HYBRI-MAX™ (medium for culture of hybridoma cell types containing 1 mM Mn^2+ and 0.02% heat-denatured BSA) (1 mM Mn^2+, 0.02% heat-denatured BSA) (1.5×10^5 cells/well) were pipetted and incubated for 1 hour in an incubator at 37° C., 5% CO2 atmosphere. After that, the supernatant was decanted off, and non-adhered cells were removed by washing with PBS. The adhered cells were fixed for 0.5 min with methanol and stained with the MERCK HEMACOLOR™ (colution for fast staining in microscopy) reagent kit in order to quantify the number of cells.

[2] = tested on: HDF cells; assay: Chemotaxis test using HDF cells (modified Boyden chambers); format: cell-based, human; settings: 4 hours at 37° C., medium control deducted, Collagen 0.3 nmol/ml, Fibronectin 0.6 nmol/ml, peptides 1 μmol/ml
Procedure: In addition to wound contraction, the epithelialisation of the wound as a result of the migration of cells from the edges of wounds plays a significant role in wound repair. Some selected peptides were investigated in chemotaxis tests in order to study their ability to simulate the migration of HDF cells. The test was conducted in accordance with Scharffetter-Kochanek et al. (J. Invest. Dermatol. 98 (1992) 3-11) in modified Boyden chambers. In the lower cavity of the Boyden chamber, 210 μl DMEM (control) or the potential chemoattractant taken up in the same volume of DMEM were placed. […] 2×10^5 cells were pipetted into the upper Boyden chamber (volume 810 μl). The incubation time was 4 hours at 37° C. The results for the peptides investigated are summed up in Tab. 5, with the figures for the medium control already having been deducted from these readings.

[3] = tested on: AKR-2B cells; assay: Cell adherence test, dilution series on AKR-2B cells (EC50); format: cell-based, mouse; settings: for EC50 (semi-maximum cell adherence): peptide/BSA conjugates diluted in PBS, read off from curve
Procedure: as §1, §2
For some selected conjugates, dilution series were included in order to determine binding constants for AKR-2B cells. For this purpose, the peptide/BSA conjugates were diluted in PBS, and 50 μl each of these dilutions were placed in the wells of a microtiter plate. Incubation and all the other steps were performed according to the method described above. After the readings had been plotted graphically, the difference between the figure for the maximum cell adherence and the zero value could be formed, and the EC50 values shown in Tab. 3 as a measure of the semi-maximum cell adherence could be read off from the line of the curve.
In order to establish binding constants for the peptides of the invention, dose effectiveness curves on AKR-2B cells were recorded for some selected conjugates. The EC50 values shown in Tab. 3 as a measure of semi-maximum cell adherence were read off from the curve concerned (plotted: cell adherence versus peptide concentration). Low EC50 values mean that only small quantities of the substances need to be used in order to achieve a semi-maximum effect, in other words that the substance is very effective.

[4] = tested on: AKR-2B cells; assay: Competitive inhibition test (adherence of AKR-2B cells to BSA/AP#2 conjugate); format: cell-based, mouse; settings: for Inhibition (maximum measured reduction in cell adherence): soluble peptide 1 μmol/well, AKR-2B cells, plates coated with BSA/AP#2 conjugate 10 nmol/well; for inhibitory effect on the attachment of AKR-2B cells (in words): soluble peptides, competition with BSA/AP#2 conjugate
Procedure: Via the specific saturation of surface receptors (shown schematically in FIG. 3E), it is possible, in the case of soluble peptides, to measure an inhibitory effect on the adhesion of test cells (AKR-2B). In the experiment described here, a selected peptide/BSA conjugate corresponding to a peptide concentration of 10 nmol/well was placed in the microtiter plates and incubated for 2 hours at 37° C. Unsaturated binding sites in the culture vessel were subsequently saturated for 30 minutes with heat-denatured BSA (2 mg/ml). The peptides were dissolved in HYBRI-MAX™ (medium for culture of hybridoma cell types containing 1 mM Mn^2+ and 0.02% heat-denatured BSA) Medium (0.02 % BSA, 1 mM Mn^2+), and the pH was adjusted to a level of 7.2 to 7.4. Following that, the peptide solutions were treated with Reductacryl®. […] From these stock solutions, dilution series were prepared in HYBRI-MAX™ (medium for culture of hybridoma cell types containing 1 mM Mn^2+ and 0.02% heat-denatured BSA) medium (1 mM Mn^2+, 0.02% heat-denatured BSA), and added to the AKR-2B cells taken up in the same medium. After that, the specimens were incubated for 10 minutes at 37° C., while being gently shaken. The cells pre-treated in this way (1.5×10^5 /200 μl) were subsequently transferred to the conjugate-coated microtiter plates. The further treatment of the test plates was performed by analogy with 4.1.
The inhibitory effect of the peptides is shown in Tab. 4 as the difference between the 100% figure (control, with no peptide in the medium), and the maximum measured reduction in cell adherence at a peptide concentration of 1 μmol/well. A figure of 100% would mean complete inhibition, i.e. the maximum effect.
For the peptides of the invention available in soluble form, i.e. in a form not bound to carrier molecules, it is possible to detect adhesion inhibiting properties which come about as a result of the specific blockade of epitopes on surface receptors of the test cells (cf. FIG. 3E).
The AP#2 peptide was selected as an internal standard. Compared to most of the other peptides of the invention (cf. Tab. 2), the adhesion promoting properties of BSA/AP#2 conjugates lie within a region of semi-maximum effectiveness. Experience has shown that, in order to detect inhibitory effects, it is favourable to measure in a range of less than optimum effect, since otherwise weak inhibitory effects might not be detected.

Substance	CELL ADHESION [%] [1] [%]	adherence promoting effect for HDF cells (in words) [1]	other results
A-E-L-L-D-G-(C) (AELLDG; C-terminal Cys) [AP#24]	32.7		
Collagen: collagen I, positive control in chemotaxis test			Avge. no. of cells per field of vision [2]: 45.7; Chemotactic migration [%] [2]: 100.0%
E-L-L-D-G-(C) [AP#25]	47.7		EC50 / binding constant on AKR-2B cells (in words) ([3]; peptide/BSA conjugates): better binding constant was obtained compared to the control; EC50 (semi-maximum cell adherence) [3]: 42.0 pmol/well; Inhibition (maximum measured reduction in cell adherence) [4]: 18.1%; inhibitory effect on the attachment of AKR-2B cells (in words) [4]: slightly less efficiency
FN: bovine fibronectin (Paesel & Lorey, 1 mg/ml), positive control for the adhesion capacity	100.0		
Fibronectin			Avge. no. of cells per field of vision [2]: 43.9; Chemotactic migration [%] [2]: 96.0%
G-G-G-A-G-G-G-S-S-G-S-G-(C) (GGGAGGGSSGSG; C-terminal Cys) [AP#11]	30.5	significant adhesion modifying effect	
G-G-G-S-G-G-G-S-S-G-S-G-(C) (GGGSGGGSSGSG; C-terminal Cys) [AP#10]	27.5	significant adhesion modifying effect	
G-I-V-R-T-P-L (GIVRTPL) [AP#9]	93.0	good effectiveness	EC50 (semi-maximum cell adherence) [3]: 50.7 pmol/well
G-I-V-R-T-P-L-A-E-L (GIVRTPLAEL) [AP#8]	78.2	good effectiveness	EC50 (semi-maximum cell adherence) [3]: 41.7 pmol/well
G-R-G-D-S-(C) [IVA1b, reference compound]	93.8	similarly good to those of fibronectin	
G-T-P-G-P-Q-G-I-A-G-Q-R-G-V-V-(C) (GTPGPQGIAGQRGVV; C-terminal Cys) [P-15, adhesion promoting fragment of the α-1(I) chain of collagen, reference compound]	62.1	slightly less effective	
G-V-V-S-T-P-L-V-N-L-I-N-G-(C) [AP#5]	53.2		
I-V-R-T-P--- -A-E-L-L-D-G-(C) (AELLDG; N-terminal IVRTP; C-terminal Cys) [AP#14]	27.0		
I-V-R-T-P-L-A-E-L-L-D-G-(C) [AP#13]	37.3		
L-A-E-L-L-D-G-(C) (LAELLDG; C-terminal Cys) [AP#21]	43.5		
L-A-E-L-L-D-G-E-(C) [AP#20]	54.1	increased adherence promoting effect	
L-A-E-L-L-D-G-E-G-(C) [AP#19]	51.9	increased adherence promoting effect	
L-A-E-L-L-D-G-E-G-Q-(C) [AP#18]	11.9	only have a basal adhesion promoting effect	
L-A-E-L-L-E-G-(C) (LAELLEG; C-terminal Cys) [AP#22]	18.8	somewhat reduced adherence efficacy	
L-A-E-L-L-L-G-(C) (LAELLLG; C-terminal Cys) [AP#23]	26.4	somewhat reduced adherence efficacy	
L-D-G-(C) [AP#27]	23.3	significant adhesion promoting effect	
L-L-D-G-(C) [AP#26]	31.3		
Q-I-D-F-N-R-L-F-T-H-P-V-T-D-L-F-D-P-(C) [AP#1]	72.5	Particularly good effectiveness	EC50 (semi-maximum cell adherence) [3]: 32.9 pmol/well
R-T-P--- -A-E-L-L-D-G-(C) [AP#16]	21.4		
R-T-P-L-A-E-L-L-D-G-(C) [AP#15]	28.5		
S-V-T-L-G-(C) [SVTLG, reference compound]	72.1	slightly less effective	EC50 (semi-maximum cell adherence) [3]: 64.5 pmol/well
T-V-L-R-N-I-Q-E-L-L-D-G-E-(C) [AP#12]	74.2		EC50 (semi-maximum cell adherence) [3]: 29.0 pmol/well
V-T-G-R-G-D-S-P-A-(C) [IVA1, reference compound]	93.9	similarly good to those of fibronectin	EC50 (semi-maximum cell adherence) [3]: 0.73 pmol/well; Inhibition (maximum measured reduction in cell adherence) [4]: 2.6%; inhibitory effect on the attachment of AKR-2B cells (in words) [4]: virtually no effect
